Laboratory results taken from the Kinase Knowledgebase extract (Sharma et al. 2016).
pIC50: −log10 of the molar value.

target: EGFR (UniProt P00533)
Sequence (P00533 whole entry, looked up): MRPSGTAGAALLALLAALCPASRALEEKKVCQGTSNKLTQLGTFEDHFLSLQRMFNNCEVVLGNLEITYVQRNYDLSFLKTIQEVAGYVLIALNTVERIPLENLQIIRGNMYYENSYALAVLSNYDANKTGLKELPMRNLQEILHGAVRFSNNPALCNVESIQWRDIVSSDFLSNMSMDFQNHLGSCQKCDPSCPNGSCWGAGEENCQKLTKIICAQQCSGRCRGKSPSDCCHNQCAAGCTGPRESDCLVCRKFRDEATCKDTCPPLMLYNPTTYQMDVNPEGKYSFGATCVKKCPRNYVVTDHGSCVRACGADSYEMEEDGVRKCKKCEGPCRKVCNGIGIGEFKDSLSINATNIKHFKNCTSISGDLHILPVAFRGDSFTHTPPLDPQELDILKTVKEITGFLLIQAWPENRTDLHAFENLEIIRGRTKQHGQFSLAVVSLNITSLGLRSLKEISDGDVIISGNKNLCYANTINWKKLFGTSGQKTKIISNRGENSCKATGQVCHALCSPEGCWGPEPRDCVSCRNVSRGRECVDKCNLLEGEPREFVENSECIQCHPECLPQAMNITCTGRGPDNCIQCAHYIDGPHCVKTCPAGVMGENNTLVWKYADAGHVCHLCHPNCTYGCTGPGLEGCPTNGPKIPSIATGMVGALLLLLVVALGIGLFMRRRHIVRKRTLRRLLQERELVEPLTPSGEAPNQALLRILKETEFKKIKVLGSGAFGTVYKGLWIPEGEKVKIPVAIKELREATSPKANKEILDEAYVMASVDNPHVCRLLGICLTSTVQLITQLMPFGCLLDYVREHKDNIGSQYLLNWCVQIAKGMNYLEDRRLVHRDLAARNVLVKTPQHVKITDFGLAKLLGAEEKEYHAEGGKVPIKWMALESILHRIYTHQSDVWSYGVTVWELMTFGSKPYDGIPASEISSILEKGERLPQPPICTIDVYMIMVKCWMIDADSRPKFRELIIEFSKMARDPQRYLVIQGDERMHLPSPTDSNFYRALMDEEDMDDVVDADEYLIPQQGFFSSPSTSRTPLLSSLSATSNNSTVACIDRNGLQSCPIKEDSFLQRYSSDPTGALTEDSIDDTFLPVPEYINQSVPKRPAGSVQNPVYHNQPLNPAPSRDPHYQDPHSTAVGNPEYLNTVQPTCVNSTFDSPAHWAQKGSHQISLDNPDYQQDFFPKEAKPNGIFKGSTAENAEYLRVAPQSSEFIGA

Compound	pIC50
CNS(=O)(=O)c1ccc2c(c1)C(c1ncnn3cc(C(=O)OC)c(C)c13)C(=O)N2 (stereo not given)	4.60 to 8.52
COC(=O)c1cn2ncnc(N3CCc4ccccc43)c2c1C	4.60 to 8.52
Cc1nc(C2C(=O)Nc3ccccc32)c2c(C)c(C(=O)NCCN3CCCC3)cn2n1 (stereo not given)	4.60 to 8.52
CCOC(=O)c1cn2ncnc(Nc3ccc(C)c(O)c3)c2c1-c1ccccc1	4.60 to 8.52
COC(=O)c1cn2ncnc(C3C(=O)Nc4ccc(S(=O)(=O)N5CCOCC5)cc43)c2c1C (stereo not given)	4.60 to 8.52
Cc1c(C(N)=O)cn2ncnc(C3C(=O)Nc4ccccc43)c12 (stereo not given)	4.60 to 8.52
Cc1c(OCCCn2cncn2)cn2ncnc(C3C(=O)Nc4ccccc43)c12 (stereo not given)	4.60 to 8.52
Fc1cc(Br)ccc1Nc1ncnn2cccc12	4.60 to 8.52
Cc1ccc(Nc2ncnn3c(C)ccc23)cc1O	4.60 to 8.52
COC(=O)c1cn2ncnc(Nc3ccc(C(=O)O)c(O)c3)c2c1C	4.60 to 8.52
CCOC(=O)c1cn2ncnc(Nc3ccc(C)c(O)c3)c2c1OC	4.60 to 8.52
Cc1c(C(=O)NCCCn2ccnn2)cn2ncnc(C3C(=O)Nc4ccccc43)c12 (stereo not given)	4.60 to 8.52
CCc1nc(C2C(=O)Nc3ccccc32)c2c(C)c(C(=O)NCCCN(C)C)cn2n1 (stereo not given)	4.60 to 8.52
COC(=O)c1cc2c(C3C(=O)Nc4ccccc43)ncnn2c1 (stereo not given)	4.60 to 8.52
CCOC(=O)c1cn2ncnc(NCc3ccccc3)c2c1CC	4.60 to 8.52
COC(=O)c1cn2ncnc(Nc3cccc(NC(C)=O)c3)c2c1C	4.60 to 8.52
Cc1c(C(=O)NCCCn2cncn2)cn2ncnc(C3C(=O)Nc4ccccc43)c12 (stereo not given)	4.60 to 8.52
CCOC(=O)c1cn2ncnc(NCc3ccc(Br)cc3)c2c1CC	4.60 to 8.52
Cc1c(C(=O)NCCCN2CCOCC2)cn2ncnc(C3C(=O)Nc4cc(F)ccc43)c12 (stereo not given)	4.60 to 8.52
COC(=O)c1cn2ncnc(Nc3ccc(C(C)C)c(O)c3)c2c1C	4.60 to 8.52
COc1c(C(=O)N(C)CCN2CCCC2)cn2ncnc(Nc3ccc(Br)cc3F)c12	4.60 to 8.52
COC(=O)c1cn2ncnc(Nc3cccc(S(=O)(=O)O)c3)c2c1C	4.60 to 8.52
CC(=O)N1CCc2ccc(Nc3ncnn4cccc34)cc21	4.60 to 8.52

Compound	pIC50
COC(=O)c1cn2ncnc(Nc3cccc(S(N)(=O)=O)c3)c2c1C	4.60 to 8.52
COc1cn2ncnc(C3C(=O)Nc4ccccc43)c2c1C (stereo not given)	4.60 to 8.52
CCc1c(C(=O)OCc2ccccc2)cn2ncnc(Nc3ccc(F)c(Cl)c3)c12	4.60 to 8.52
COC(=O)c1cn2ncnc(C3C(=O)Nc4ccc(S(N)(=O)=O)cc43)c2c1C (stereo not given)	4.60 to 8.52
CCOC(=O)c1cn2ncnc(N[C@@H](C)c3ccccc3)c2c1CC	4.60 to 8.52
COC(=O)c1cn2ncnc(Nc3ccc(C)c(C)c3)c2c1C	4.60 to 8.52
CCCCNS(=O)(=O)c1cccc(Nc2ncnn3cc(C(=O)OC)c(C)c23)c1	4.60 to 8.52
COC(=O)CCc1cn2ncnc(C3C(=O)Nc4ccccc43)c2c1C (stereo not given)	4.60 to 8.52
COC(=O)c1cn2ncnc(Nc3ccc4cn[nH]c4c3)c2c1C	4.60 to 8.52
COC(=O)c1cn2ncnc(C3C(=O)Nc4ccc(S(=O)(=O)NCCN5CCCC5)cc43)c2c1C (stereo not given)	4.60 to 8.52
CCOC(=O)c1cn2ncnc(Cc3ccc(F)c(Cl)c3)c2c1C(C)C	4.60 to 8.52
CCOC(=O)c1cn2ncnc(NCCc3ccccn3)c2c1CC	4.60 to 8.52
COC(=O)c1cn2ncnc(Nc3cccc(C#N)c3)c2c1C	4.60 to 8.52
CCC(C)NC(=O)c1cn2ncnc(C3C(=O)Nc4ccccc43)c2c1C (stereo not given)	4.60 to 8.52
Cc1c(C(=O)NCCCn2ccnc2C)cn2ncnc(C3C(=O)Nc4ccccc43)c12 (stereo not given)	4.60 to 8.52
COC(=O)c1cn2ncnc(Nc3ccc(Br)c(C)c3)c2c1C	4.60 to 8.52
COC(=O)c1cn2ncnc(Nc3ccc(F)c(Cl)c3)c2c1C	4.60 to 8.52
COC(=O)c1cn2ncnc(-n3c(=O)[nH]c4ccccc43)c2c1C	4.60 to 8.52
COC(=O)c1cn2ncnc(-c3c(O)[nH]c4cc(Br)ccc34)c2c1C	4.60 to 8.52
COC(=O)c1cn2ncnc(Nc3ccc(OC)nc3)c2c1C	4.60 to 8.52
Cc1c(OCCCn2nccn2)cn2ncnc(Nc3ccc(Br)cc3F)c12	4.60 to 8.52
CCOC(=O)c1cn2ncnc(Nc3ccc(C)c(O)c3)c2c1CC	4.60 to 8.52
